# In PubChem BioAssay AID1963434 (Molecular Pharmacology Branch, DTP, NCI, 2024):
# pIC50: −log10 of the molar value.
# System: 755483-174-R-J1-PDC complex spheroid growth, percent test/control
# Experiment: Anticancer human tumor 755483-174-R-J1-PDC patient-derived rhabdomyosarcoma cell line growth inhibition [Asc]
# Details: for pIC50: curve of first compound; for viability, T/C: stronger effect = lower value
# How it was run: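 Concentration series start at each agent's clinical Cmax, or at 10 microM when none is established, and drop in half-log steps; agents are applied alone or together to complex spheroids built with HUVEC and hMSC.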
# 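Note: spheroids exposed to compounds for seven days before readout.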
smiles,measurement,setting,value
C#Cc1c(F)ccc2cc(O)cc(-c3ncc4c(N5CC6CCC(C5)N6)nc(OCC56CCCN5CC(F)C6)nc4c3F)c12 (stereo not given) + Cc1c(S(C)(=O)=O)c(-c2cc(F)cc(N3CCN(c4ccc(NS(=O)(=O)c5ccc(NC(CCN6CCC(C(=O)OCCCP(=O)(O)O)CC6)CSc6ccccc6)c(S(=O)(=O)C(F)(F)F)c5)cc4)CC3)c2)c(-c2ccc(Cl)cc2)n1C(C)C,pIC50,second compound 0.1 µM,5.92
same,pIC50,second compound 0.316 µM,5.89
same,pIC50,second compound 1 µM,> 7.50
same,pIC50,second compound 3.16 µM,> 7.50
same,pIC50,second compound 10 µM,> 7.50
same,"viability, T/C","second compound 0.1 µM, first compound 0.0316 µM",60.1%
same,"viability, T/C","second compound 0.1 µM, first compound 0.1 µM",65.8%
same,"viability, T/C","second compound 0.1 µM, first compound 0.316 µM",67.2%
same,"viability, T/C","second compound 0.1 µM, first compound 1 µM",47.9%
same,"viability, T/C","second compound 0.1 µM, first compound 3.16 µM",36.6%
same,"viability, T/C","second compound 0.1 µM, first compound 10 µM",12.6%
same,"viability, T/C","second compound 0.316 µM, first compound 0.0316 µM",49%
same,"viability, T/C","second compound 0.316 µM, first compound 0.1 µM",63.5%
same,"viability, T/C","second compound 0.316 µM, first compound 0.316 µM",47.6%
same,"viability, T/C","second compound 0.316 µM, first compound 1 µM",55.4%
same,"viability, T/C","second compound 0.316 µM, first compound 3.16 µM",35.8%
same,"viability, T/C","second compound 0.316 µM, first compound 10 µM",10.3%
same,"viability, T/C","second compound 1 µM, first compound 0.0316 µM",44.9%
same,"viability, T/C","second compound 1 µM, first compound 0.1 µM",49.5%
same,"viability, T/C","second compound 1 µM, first compound 0.316 µM",39.1%
same,"viability, T/C","second compound 1 µM, first compound 1 µM",39.1%
same,"viability, T/C","second compound 1 µM, first compound 3.16 µM",27.3%
same,"viability, T/C","second compound 1 µM, first compound 10 µM",5.81%
same,"viability, T/C","second compound 3.16 µM, first compound 0.0316 µM",42.3%
same,"viability, T/C","second compound 3.16 µM, first compound 0.1 µM",36.8%
same,"viability, T/C","second compound 3.16 µM, first compound 0.316 µM",41.5%
same,"viability, T/C","second compound 3.16 µM, first compound 1 µM",33.6%
same,"viability, T/C","second compound 3.16 µM, first compound 3.16 µM",23.8%
same,"viability, T/C","second compound 3.16 µM, first compound 10 µM",4.86%
same,"viability, T/C","second compound 10 µM, first compound 0.0316 µM",37.9%
same,"viability, T/C","second compound 10 µM, first compound 0.1 µM",35.3%
same,"viability, T/C","second compound 10 µM, first compound 0.316 µM",45.4%
same,"viability, T/C","second compound 10 µM, first compound 1 µM",35.9%
same,"viability, T/C","second compound 10 µM, first compound 3.16 µM",20.8%
same,"viability, T/C","second compound 10 µM, first compound 10 µM",17.5%
Cc1nc(N2CCC3(CC2)COC(C)C3N)c(CO)nc1Sc1ccnc(N)c1Cl (stereo not given) + Cc1c(S(C)(=O)=O)c(-c2cc(F)cc(N3CCN(c4ccc(NS(=O)(=O)c5ccc(NC(CCN6CCC(C(=O)OCCCP(=O)(O)O)CC6)CSc6ccccc6)c(S(=O)(=O)C(F)(F)F)c5)cc4)CC3)c2)c(-c2ccc(Cl)cc2)n1C(C)C,pIC50,second compound 0.1 µM,> 8.02
same,pIC50,second compound 0.316 µM,> 8.02
same,pIC50,second compound 1 µM,> 8.02
same,pIC50,second compound 3.16 µM,> 8.02
same,pIC50,second compound 10 µM,> 8.02
same,"viability, T/C","second compound 0.1 µM, first compound 0.00949 µM",49.6%
same,"viability, T/C","second compound 0.1 µM, first compound 0.03 µM",46.2%
same,"viability, T/C","second compound 0.1 µM, first compound 0.0949 µM",40.3%
same,"viability, T/C","second compound 0.1 µM, first compound 0.3 µM",26.5%
same,"viability, T/C","second compound 0.1 µM, first compound 0.949 µM",14.2%
same,"viability, T/C","second compound 0.1 µM, first compound 3 µM",13.8%
same,"viability, T/C","second compound 0.316 µM, first compound 0.00949 µM",42.4%
same,"viability, T/C","second compound 0.316 µM, first compound 0.03 µM",43.5%
same,"viability, T/C","second compound 0.316 µM, first compound 0.0949 µM",34.6%
same,"viability, T/C","second compound 0.316 µM, first compound 0.3 µM",23%
same,"viability, T/C","second compound 0.316 µM, first compound 0.949 µM",12.7%
same,"viability, T/C","second compound 0.316 µM, first compound 3 µM",9.74%
same,"viability, T/C","second compound 1 µM, first compound 0.00949 µM",33.5%
same,"viability, T/C","second compound 1 µM, first compound 0.03 µM",33.9%
same,"viability, T/C","second compound 1 µM, first compound 0.0949 µM",38.6%
same,"viability, T/C","second compound 1 µM, first compound 0.3 µM",21.9%
same,"viability, T/C","second compound 1 µM, first compound 0.949 µM",17.7%
same,"viability, T/C","second compound 1 µM, first compound 3 µM",10.4%
same,"viability, T/C","second compound 3.16 µM, first compound 0.00949 µM",26.5%
same,"viability, T/C","second compound 3.16 µM, first compound 0.03 µM",47.5%
same,"viability, T/C","second compound 3.16 µM, first compound 0.0949 µM",26.4%
same,"viability, T/C","second compound 3.16 µM, first compound 0.3 µM",21.2%
same,"viability, T/C","second compound 3.16 µM, first compound 0.949 µM",16.8%
same,"viability, T/C","second compound 3.16 µM, first compound 3 µM",10.5%
same,"viability, T/C","second compound 10 µM, first compound 0.00949 µM",33.3%
same,"viability, T/C","second compound 10 µM, first compound 0.03 µM",36%
same,"viability, T/C","second compound 10 µM, first compound 0.0949 µM",25.8%
same,"viability, T/C","second compound 10 µM, first compound 0.3 µM",23.6%
same,"viability, T/C","second compound 10 µM, first compound 0.949 µM",9.38%
same,"viability, T/C","second compound 10 µM, first compound 3 µM",6.34%
